This note sets out measurements from patent US9341616B2, “Sweet taste receptor chimeric proteins and use thereof” (AJINOMOTO CO., INC., priority 2014, dated 2016).

Residues, ends and D or L forms follow the SMILES beside them.

The test deals with h-mT1R2-471/T1R3mosaicA (UniProt Q8TE23+Q925D8, A12W/A31M/A537S/A558R/A564V/A568V/A570T/A588V/A645S/A649T/A658V/A698V/A702T/A782V/A793V/A807V/C582S/C678S/D480N/E16H/E530V/E534N/E542M/E548N/E725V/F14L/F29L/F525Y/F541I/F612A/F622V/F665L/F695L/G696N/G701T/H484Y/H528R/H728R/I36V/I481V/I486P/I490V/I510L/I518V/I595M/I60P/I617V/I643V/I645L/I692L/I695G/I706V/I740A/I803L/K30R/K476T/K504M/K555R/K565R/K626T/K714N/K818R/K827G/L17P/L471T/L521P/L560F/L571I/L578I/L610P/L631F/L636F/L639V/L684P/L688V/L702I/L734M/L735F/L800F/L823M/L825Q/M19T/M492I/M616G/M644L/M682V/M690V/M744T/M748V/N477Y/N52R/N540G/N541S/N547G/N58S/N63T/N675D/N721H/P545F/P561R/P564S/P61V/P638T/P824S/Q32K/Q472E/Q474R/Q479S/Q536L/Q53S/Q546K/Q550E/Q555R/Q56R/Q611L/Q676H/Q757R/Q795R/Q831P/R473T/R498S/R632Q/R667S/S22P/S45E/S501P/S547N/S550A/S576L/S595F/S610P/S628F/S635P/S637R/S663R/S670G/S679G/S681F/S703N/S717H/S727G/S784D/S804G/T46A/T50G/T529S/T542A/T549I/T609V/T629S/T642S/T663I/T694M/T705I/T706G/T716I/T813A/V508I/V512P/V557A/V573A/V584A/V585L/V613L/V617M/V673M/V687A/V691A/V694A/V718L/V718M/V723A/V729T/V738A/V741L/V774I/V791M/V805L/V812A/V821L/W599R/W676R/W824R/Y533F/Y615F/Y671F/Y680C/Y769S/Y783H/Y794L). The note with it: Table 4; genes h-mT471/T3mA (h-mT1R2-471, T1R3mA); HEK293E cells.
Chain of h-mT1R2-471/T1R3mosaicA (Q8TE23 with tags, fused parts or gaps with the stated changes limits assumed): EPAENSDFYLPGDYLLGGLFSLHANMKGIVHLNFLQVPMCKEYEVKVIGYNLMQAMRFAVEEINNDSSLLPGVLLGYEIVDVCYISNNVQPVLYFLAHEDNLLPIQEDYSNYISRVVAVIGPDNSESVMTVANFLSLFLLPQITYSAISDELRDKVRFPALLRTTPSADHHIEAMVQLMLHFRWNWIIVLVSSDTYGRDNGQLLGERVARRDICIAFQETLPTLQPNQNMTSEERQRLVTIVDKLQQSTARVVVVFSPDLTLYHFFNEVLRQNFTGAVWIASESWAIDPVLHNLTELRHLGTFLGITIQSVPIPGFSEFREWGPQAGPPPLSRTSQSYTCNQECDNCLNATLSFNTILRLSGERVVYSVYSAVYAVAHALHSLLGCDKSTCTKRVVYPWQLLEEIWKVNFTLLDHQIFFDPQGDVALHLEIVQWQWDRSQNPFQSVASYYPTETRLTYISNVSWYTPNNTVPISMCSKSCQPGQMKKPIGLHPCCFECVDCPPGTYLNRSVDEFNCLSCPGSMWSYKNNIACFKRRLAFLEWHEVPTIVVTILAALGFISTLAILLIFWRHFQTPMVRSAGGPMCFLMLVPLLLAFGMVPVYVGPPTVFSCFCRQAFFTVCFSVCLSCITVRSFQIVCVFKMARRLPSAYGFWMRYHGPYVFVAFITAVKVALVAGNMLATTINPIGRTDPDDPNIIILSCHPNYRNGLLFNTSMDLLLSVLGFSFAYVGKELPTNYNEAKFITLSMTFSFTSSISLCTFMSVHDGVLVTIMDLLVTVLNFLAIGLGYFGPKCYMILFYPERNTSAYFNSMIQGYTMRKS
Chain of h-mT1R2-471/T1R3mosaicA (Q925D8 with tags, fused parts or gaps with the stated changes limits assumed): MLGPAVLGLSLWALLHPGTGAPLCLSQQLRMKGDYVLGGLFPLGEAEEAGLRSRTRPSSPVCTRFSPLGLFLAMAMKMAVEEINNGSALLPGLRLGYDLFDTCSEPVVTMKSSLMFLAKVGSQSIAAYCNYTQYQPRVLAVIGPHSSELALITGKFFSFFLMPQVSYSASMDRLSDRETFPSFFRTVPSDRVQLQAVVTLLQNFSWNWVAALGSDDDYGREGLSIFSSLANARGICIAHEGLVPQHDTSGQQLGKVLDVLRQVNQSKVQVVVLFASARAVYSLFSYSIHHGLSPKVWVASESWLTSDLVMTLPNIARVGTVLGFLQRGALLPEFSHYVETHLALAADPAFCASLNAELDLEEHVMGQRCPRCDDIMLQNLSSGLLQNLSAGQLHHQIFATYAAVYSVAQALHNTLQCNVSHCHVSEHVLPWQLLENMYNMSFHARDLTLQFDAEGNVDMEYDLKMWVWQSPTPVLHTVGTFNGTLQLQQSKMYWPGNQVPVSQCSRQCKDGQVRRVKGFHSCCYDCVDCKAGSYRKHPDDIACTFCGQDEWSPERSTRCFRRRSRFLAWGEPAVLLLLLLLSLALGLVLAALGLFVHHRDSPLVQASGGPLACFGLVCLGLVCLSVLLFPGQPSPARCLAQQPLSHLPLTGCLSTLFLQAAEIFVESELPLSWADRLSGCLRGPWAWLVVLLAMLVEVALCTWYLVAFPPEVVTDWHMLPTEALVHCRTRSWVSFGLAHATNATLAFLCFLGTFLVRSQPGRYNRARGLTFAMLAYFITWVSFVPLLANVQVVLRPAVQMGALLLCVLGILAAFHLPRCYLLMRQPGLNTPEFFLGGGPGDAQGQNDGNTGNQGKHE
Regarding `CC1=CC(=O)NS(=O)(=O)O1` [Acesulfame K, acesulfame potassium], the S/N is listed as 4.3.

On to `COC(=O)[C@H](Cc1ccccc1)NC(=O)[C@H](CC(=O)O)NCCCc1ccc(OC)c(O)c1` [Advantame, advantame], for which the S/N stood at 10.0.

`COC(=O)[C@H](Cc1ccccc1)NC(=O)[C@@H](N)CC(=O)O` [Aspartame, aspartame] (HELM PEPTIDE1{D.F.[CO[*:1]]}$$$$V2.0) registered a S/N of 7.9.

`COC(=O)[C@H](Cc1ccccc1)NC(=O)[C@H](CC(=O)O)NCCC(C)(C)C` [Neotame, neotame] gave a S/N of 8.3.

The compound `C[C@H](NC(=Nc1ccc(C#N)cc1)NCC(=O)O)c1ccccc1` [SC-45647, [3-[(S)-1-phenylethyl]-2-(4-cyanophenyl)guanidino]acetic acid] showed a S/N of 6.5.

In the case of `O=C1NS(=O)(=O)c2ccccc21.[Na]` [Saccharin Na, sodium saccharin], the S/N is listed as 3.9.

`OC[C@H]1O[C@H](O[C@]2(CCl)O[C@H](CCl)[C@@H](O)[C@@H]2O)[C@H](O)[C@@H](O)[C@H]1Cl` [Sucralose, sucralose] registered a S/N of 7.1.

In the case of `OC[C@H]1O[C@@](CO)(O[C@H]2O[C@H](CO)[C@@H](O)[C@H](O)[C@H]2O)[C@@H](O)[C@@H]1O` [Sucrose, sucrose], the S/N came out at 3.5.
